Where “and” joins values, the source holds several entries; their conditions need not be identical. Identical values can stand only once.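 Growth conditions: 96-well plates. Treatment: test compound, 48 hours, 5 concentrations. Analysis: linear interpolation between bracketing concentrations; unreached endpoints set to highest concentration. GI50: concentration for 50% inhibition of growth. TGI: concentration producing complete growth inhibition.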
Tests used:
Experiment in all cases: growth of human tumour cells (NCI), 48 h
ACHN renal = system: ACHN renal
DU-145 prostate = system: DU-145 prostate
HL-60(TB) leukemia = system: HL-60(TB) leukemia
HOP-62 NSCLC = system: HOP-62 NSCLC
KM12 colon = system: KM12 colon
OVCAR-4 ovarian = system: OVCAR-4 ovarian
SK-MEL-5 melanoma = system: SK-MEL-5 melanoma
SW-620 colon = system: SW-620 colon
T-47D breast = system: T-47D breast
U251 CNS = system: U251 CNS

SMILES	TGI (ACHN renal)	TGI (DU-145 prostate)	TGI (HL-60(TB) leukemia)	TGI (HOP-62 NSCLC)	TGI (KM12 colon)	TGI (OVCAR-4 ovarian)	TGI (SK-MEL-5 melanoma)	TGI (SW-620 colon)	TGI (T-47D breast)	TGI (U251 CNS)	GI50 (ACHN renal)	GI50 (DU-145 prostate)	GI50 (HL-60(TB) leukemia)	GI50 (HOP-62 NSCLC)	GI50 (KM12 colon)	GI50 (OVCAR-4 ovarian)	GI50 (SK-MEL-5 melanoma)	GI50 (SW-620 colon)	GI50 (T-47D breast)	GI50 (U251 CNS)
COc1c(CC=C(C)C)c(O)c(C(CC(C)C)c2c(O)c(CC=C(C)C)c(O)c(C(C)=O)c2O)c(O)c1C(C)=O (stereo not given)	10.9 µM	16.5 µM	3.28 µM	3.96 µM	5.05 µM	14.4 µM	5.04 µM	5.8 µM	16 µM	11.2 µM										
COCCOCCOCCOCCOC(=O)OC[n+]1ccc(NC(=NCCCCCCOc2ccc(Cl)cc2)NC#N)cc1	23.4 µM	18.2 µM	10.7 µM	24.1 µM	17.3 µM	19.9 µM	11.6 µM	16.3 µM	17.5 µM	18.7 µM	10.8 µM	0.0616 µM	3.25 µM	9.58 µM	< 0.0377 µM	6.47 µM	1.43 µM	< 0.01 µM	0.112 µM	
COc1ccc(/C=N\Nc2nc(SCC(C)C)nc(-c3ccc(OC)cc3)c2C#N)cc1	2.37 µM	> 100 µM	> 100 µM	10.8 µM	> 100 µM	1.83 µM	51.2 µM	> 100 µM	10.7 µM	14.9 µM	0.71 µM	13.7 µM	> 100 µM	0.414 µM	10.6 µM	0.417 µM	13.6 µM	5.15 µM	1.36 µM	0.988 µM
CN(C)c1nc(N)c(C#N)c(C#N)c1C#N	> 10 µM	> 10 µM	> 6.07 µM	> 10 µM	> 10 µM	> 10 µM	> 10 µM	> 10 µM	> 10 µM	> 10 µM										
C=CCN(CC=C)C(=O)[C@H](CC)[C@@H]1CC[C@@H](C)[C@@H]([C@H](C)[C@@H](O)[C@@H](C)C(=O)[C@H](CC)C2O[C@]3(C=C[C@@H](O)[C@]4(CC[C@@](C)([C@H]5CC[C@](O)(CC)[C@H](C)O5)O4)O3)[C@H](C)C[C@@H]2C)O1 (stereo not given in full)	11 µM	5.61 µM	4.76 µM	12.2 µM	3.65 µM	10.1 µM	3.15 µM	10.6 µM	13.5 µM	10.1 µM	2.9 µM	2.46 µM	2.09 µM	3.22 µM	1.87 µM	2.63 µM	1.72 µM	2.97 µM	2.37 µM	2.78 µM
CC1(C)[C@H](O)[C@H](F)C[C@@]2(C)Oc3ccc(C(=O)Nc4ccc5c(c4)NC(=O)C54CCN(CCCCC#N)CC4)cc3C[C@H]12	23.2 µM	17.3 µM	6.04 µM	5.61 µM	9.79 µM and 11.9 µM	20.4 µM	2.9 µM and 1.55 µM	2.52 µM and 2.68 µM	26.1 µM	2.02 µM	0.961 µM and 5.29 µM		0.0583 µM	1.28 µM and 1.13 µM	0.463 µM and 0.707 µM	4.31 µM and 6.31 µM		0.0943 µM and 0.0405 µM	3.76 µM and 2.49 µM	0.00414 µM
COc1ccc(S(=O)(=O)N2CCNCC2)cc1OC	> 100 µM	> 100 µM	> 100 µM	> 100 µM	> 100 µM	> 100 µM	> 100 µM	> 100 µM	> 100 µM	> 100 µM	> 100 µM	> 100 µM	> 100 µM	> 100 µM	> 100 µM	> 100 µM	> 100 µM	> 100 µM	> 100 µM	> 100 µM
CC1=NNC(=S)NCCCN2CCN(CCCNC(=S)NN=C(C)C=NNC(=S)NCCCN3CCN(CCCNC(=S)NN=C1)CC3)CC2	> 100 µM	> 100 µM	> 100 µM	> 100 µM	> 100 µM	> 100 µM	> 100 µM	> 100 µM	> 100 µM	> 100 µM										
CC(C)N(Cc1ccc(F)cc1)c1ccc(CO)c(Cl)c1	20.9 µM	23.3 µM	21.8 µM	17.6 µM	23.4 µM	1.7 µM	21.8 µM	15.3 µM	0.515 µM	14.4 µM	8.08 µM	11.1 µM	3.15 µM	1.14 µM	10.9 µM	0.116 µM	8.67 µM	0.363 µM	0.0645 µM	0.37 µM
COc1c(OC(C)C)cc2cc(O)c(C(=O)NC3Cc4ccc(c(Cl)n4)O[C@@H]4C=C5C#C/C(=C\C#CC6OC56C4OC4CC(C)(O)C(O)C(C)O4)C(OC4CC(O)C(N(C)C)C(C)O4)COC3=O)cc2c1OC (stereo not given in full)	> 36.3 µM and 5.69 µg/mL	> 36.3 µM	> 36.3 µM and 0.336 µg/mL	> 36.3 µM and 1.74 µg/mL	> 36.3 µM and 37.5 µg/mL	> 36.3 µM and 37.5 µg/mL	> 36.3 µM and 10.1 µg/mL	37.5 µg/mL	> 36.3 µM	> 36.3 µM and 9.98 µg/mL	9.33 µM and 0.303 µg/mL		27.5 µM and 0.019 µg/mL	10.3 µM and 0.402 µg/mL	> 36.3 µM and 10.1 µg/mL	> 36.3 µM and 30.8 µg/mL	> 36.3 µM and 0.546 µg/mL	0.165 µg/mL		5.61 µM and 0.596 µg/mL
O=S(=O)(O)c1ccc2cc3nn(-c4ccc(/C=C/c5ccc(-n6nc7cc8ccc(S(=O)(=O)O)cc8cc7n6)cc5S(=O)(=O)O)c(S(=O)(=O)O)c4)nc3cc2c1	> 100 µM	> 100 µM	> 100 µM	> 100 µM	> 100 µM	> 100 µM	> 100 µM	> 100 µM	> 100 µM	> 100 µM	81.6 µM	> 100 µM	31.9 µM	> 100 µM	30.4 µM	> 100 µM	94.7 µM	63.2 µM	> 100 µM	50.3 µM
NC(=O)CC(N)c1nn[nH]n1 (stereo not given)	> 100 µM	> 100 µM	> 100 µM	> 100 µM	> 100 µM	> 100 µM	> 100 µM	> 100 µM	> 100 µM	> 100 µM										
O=c1[nH]c2ccccc2n1C1CCN(CCCC(c2ccc(F)cc2)c2ccc(F)cc2)CC1	3.16 µM and 24.7 µM	3.24 µM and 28.5 µM	4.4 µM and 11.9 µM	2.89 µM and 22.3 µM	3.4 µM and 22.1 µM	2.47 µM and 22 µM	2.74 µM and 4.8 µM	3.41 µM and 13.8 µM	2.67 µM and 17.7 µM	2.9 µM and 14.1 µM	1.66 µM and 10.9 µM	1.73 µM and 13.7 µM	1.82 µM	1.53 µM	1.76 µM and 6.97 µM	1.23 µM	1.42 µM and 2.13 µM	1.75 µM and 4.5 µM	1.06 µM and 4.22 µM	1.49 µM and 5.24 µM
Fc1ccc2nc(-c3nc(-c4ccccc4)n4ccccc34)[nH]c2c1	5.94 µM	18.1 µM	> 100 µM	3.84 µM	10.2 µM	6.31 µM	3.49 µM	17.3 µM	4.76 µM	5.42 µM	2.25 µM	5.56 µM	14.9 µM	1.94 µM	3.31 µM	1.93 µM	1.55 µM	3.97 µM	1.06 µM	2.22 µM
C[C@@H](NC(=O)c1ccc(F)cc1)c1ccc2c(c1)CCN2C(=O)C1CCOCC1	> 100 µM	> 100 µM	> 100 µM	> 100 µM	> 100 µM	> 100 µM	> 100 µM	> 100 µM	> 100 µM	> 100 µM	> 100 µM	> 100 µM	> 100 µM	> 100 µM	> 100 µM	> 100 µM	> 100 µM	> 100 µM	> 100 µM	> 100 µM
O=[N+]([O-])c1cc(Cc2cc([N+](=O)[O-])c3cccnc3c2O)c(O)c2ncccc12	41.3 µM	54 µM	5.35 µM	42.4 µM	25.8 µM	> 74.1 µM	24.5 µM	> 67.9 µM	18 µM	19.1 µM										
COc1ccc2c(c1)C(=O)c1c-2c(=O)n(CCCN(C)C)c2cc(OC)c(OC)cc12	14.4 µM	10.9 µM	31.7 µM	> 100 µM	19.8 µM	25.3 µM	> 100 µM	20.8 µM	> 100 µM	18.9 µM	2.76 µM	0.623 µM	10.4 µM	0.682 µM	5.73 µM	12.6 µM	86.1 µM	1.71 µM	> 100 µM	1.23 µM
COc1cc(/C=C/C(=O)O[C@H]2[C@H](O[C@@H]3O[C@@H](C)[C@H](O)[C@@H](O)[C@H]3O)[C@@H](O)[C@H](OCCc3ccc(O)c(O)c3)O[C@@H]2COC2OCC(O)(CO)C2O)ccc1O (stereo not given in full)	> 100 µM	> 100 µM	> 100 µM	> 100 µM	> 100 µM	> 100 µM	> 100 µM	46 µM	> 100 µM	> 100 µM	> 100 µM	> 100 µM	> 100 µM	> 100 µM	> 100 µM	> 100 µM	> 100 µM	20.1 µM	> 100 µM	> 100 µM

Reference: PubChem BioAssay (NCI)
